By Emax is commonly meant the size of the effect at its maximum, as opposed to the concentration needed.

The subject of experiment [1] is saphenous vein in rabbits. The experiment in a line: Potentiation of the contractile response of the rabbit saphenous vein to noradrenaline. Format: cell-based. Here is the method: (§1) The contractile effects are measured in vitro under static conditions on vascular capacitance or resistance rings of saphenous, femoral, jugular, mesenteric, and caval veins . . . and on femoral, carotid, basilar, or mesenteric arteries, as well as the thoracic or abdominal aorta . . . in rats (Wistar, 200-250 g), rabbits (New Zealand, 2-2.5 kg), guinea pigs (Dunkin Hartley 250-300 g).
(§2) The rings are placed in a chamber for isolated organs (25 mL for capacitance vessels and 2.5 mL for resistance vessels according to Mulvany), and maintained under isometric conditions using two rigid threads inserted inside the vessel, avoiding causing damage to the endothelium. The vessels are bathed in a modified Krebs solution (in mM: NaCl=118; KCl=4.6; CaCl2 =2.5; MgSO4 =1.2; KH2 PO4 =1.17; NaHCO3 =25; glucose=11), continuously aerated using a gaseous mixture of 95% O2 and 5% Co2, at a pH=7.4, and regulated by thermostat at 37° C. The rings are adjusted to their optimal point as far as the tension-length relationship is concerned. […] The pharmacological studies are carried out after a few standardized preliminary contractile stimulations using a depolarizing solution (hyperpotassic type obtained by replacing NaCl with KCl in equimolar quantities), along with rinsings and periods of equilibration in a pure physiological solution. […]

The test system of a further experiment is jugular vein of the rat. Kind of experiment: Contraction of rat jugular vein under depolarizing hyperpotassic conditions. The settings on record: pH 7.4, read-out: ED50 (contraction). The format is cell-based. Here is the method: as §1, §2
The test system of experiment [2] is perfused mesenteric venous network of rats. Kind of experiment: Contraction of the perfused mesenteric venous network of rats. The settings on record: rat perfused mesenteric venous network, depolarizing hyperpotassic conditions; read-out: ED50 (contraction). Format: cell-based. The protocol:
The contractile effects are also measured in vitro under dynamic flow conditions, by the pressure developed by the vascular beds that are perfused at a constant flow rate. At the mesenteric level, the selective effect on veins is studied using the model of a double simultaneous and separate infusion of the arterial and venous networks model developed by T. Warner (British J. Pharmacol., 1990, Vol. 99, pp. 427-433). The separation of the two networks is achieved by cutting the vessels and the tissues along the intestinal border. The networks are perfused at 2 mL.min^-1 with a Krebs solution (37.5° C.), which is aerated using 95% O2 and 5% CO2. In vivo, the arterial and venous pressures are measured in the anesthetized animal, under basal conditions and after circulatory arrest caused by the swelling of a balloon catheter introduced at the level of the left atrium. During the cardiac arrest, the venous tone (average circulatory filling pressure at a constant blood volume) is calculated from the venous and arterial pressures measured at equilibrium and corrected as a function of the relative differences in compliance between these two networks (Samar & Coleman, Am. J. Physiol., 1978, Vol. 234: pp. H94-100; Yamamoto et al., Am. J. Physiol., 1980, Vol. 238: pp. H823-828).

The test system of experiment [3] is carotid arteries of rabbits. The experiment in a line: Contraction of rabbit carotid arteries under depolarizing hyperpotassic conditions. The format is cell-based. Conditions: Oryctolagus cuniculus, pH 7.4, read-out: ED50 (contraction). The protocol: as §1, §2
For experiment [4], the system named is hyperpermeability induced by histamine in rats. The experiment in a line: Hyperpermeability induced by histamine in rats. Format: in vivo, rat (Wistar). The settings on record: rat, oral 0.1 mg/kg, after 2 h, compared to the control group. The protocol:
The vascular permeability is studied in vivo by measuring the extravasation of albumin, the quantity of which is determined using an albumin-binding dye (Evans blue).
The hyperpermeability is induced by the intradermal injection of a solution of histamine, bradykinin, or zymosan.
The technique is derived from that described by Beach & Steinetz, J. Pharmacol. Exp. Therap., 1961, Vol. 131: pp. 400-406.
The abdominal walls of the rats (Wistar, 200-230 g) are shorn 1 h before the start of the experiment. The product to be tested is injected by the intraperitoneal route or orally 1-4 h before the sacrifice. The rats are anesthetized with a halothane mixture. […]
At the site of the injection of the inflammatory agent, the skin is cut and placed into glass tubes with a ground[-glass] neck containing 3 mL of fuming hydrochloric acid. […] The optical densities are quantified by absorption spectrophotometry at a wavelength of 620 nm, against a blank [control] containing only dichloromethane. The averages of the optical densities of the different lots of treated or control animals are calculated, then a percentage of variation of the values corresponding to the treated [experimental] animals compared to those of the control animals is calculated.

Experiment [5] deals with pleurisy by carrageenin in rats. The experiment in a line: Pleurisy induced by carrageenin in rats. The format is in vivo. Conditions: rat, oral 3×5 mg. The protocol: The anti-inflammatory activity of the compounds is also studied by measuring the inhibition of the edema and the leukocyte migration after the induction of pleurisy in rats by the injection of carrageenin into the pleural cavity (Almeida et al., J. Pharmacol. Exp. Therap., 1980, Vol. 214: p. 74). The rats are treated orally using the compounds 2 h before the injection of carrageenin, and 2 and 4 h after this injection. After a predetermined time (6 h) following the induction of pleurisy, the rats are sacrificed; the pleural liquid is recovered by aspiration, and its volume is measured. The leukocytic cells are counted using the "cell counter" technique. The results are expressed as the number of leukocytes in the exudate expressed with respect to 100 g of animal weight and compared with those of the control lot.

Regarding `O=C1c2ccccc2C(=O)c2sc(-c3ccco3)nc21` [Example n, 4,9-Dihydro-4,9-dioxo-2-(2-furyl)-naphtho[2,3-d]thiazole], the “change of noradrenaline ED50” value in experiment [1] was “reduced by a factor of ten”. In addition, the maximum response (Emax) in experiment [1] (Oryctolagus cuniculus, read-out: increase of noradrenaline Emax) is 30%. The EC50 with jugular vein of the rat came out at 50 nM; in experiment [2], 300 nM; in experiment [3], 120 nM. Besides, the “decrease of hyperpermeability induced by histamine” value in experiment [4] is recorded as 26%. Further, the “volume of pulmonary exudate” value in experiment [5] is listed as “significantly decreases the volume of pulmonary exudate”.

The values above are taken from patent US6262095A, “Use of tricyclic derivatives of 1,4-dihydro-1,4-dioxo-1H-naphthalene, novel compounds obtained and their application in theraphy” (Laboratoire Innothera, priority 1995, dated 2001).
